#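 48-hour exposure; five concentrations; linearly interpolated endpoints. The concentration for 50% growth inhibition is given as GI50.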 Activity calls are given as the source filed them. No stated cut-off is given here; in the data, active = GI50 up to about 1.1 µM and inactive = higher. Peptide text beside a SMILES is read from it. * marks the point of attachment. OSu = O=C1CCC(=O)N1O*
# What was measured:
# Test in all cases: growth of human tumour cells (NCI), 48 h
# U-251 = system: U-251
# MDA-MB-231 = system: MDA-MB-231
# M14 = system: M14
# SNB-75 = system: SNB-75
# DU-145 = system: DU-145
# T47D = system: T47D
# BT-549 = system: BT-549
# OVCAR-5 = system: OVCAR-5
# IGROV-1 = system: IGROV-1
# RXF 393 = system: RXF 393
# TK-10 = system: TK-10
# PC-3 = system: PC-3
# NCI-H522 = system: NCI-H522
# LOX IMVI = system: LOX IMVI
# HOP-62 = system: HOP-62
# SK-OV-3 = system: SK-OV-3
# UACC-62 = system: UACC-62
# MCF7 = system: MCF7
# A549 = system: A549
# A498 = system: A498
Structure (SMILES),GI50 (U-251),GI50 (MDA-MB-231),GI50 (M14),GI50 (SNB-75),GI50 (DU-145),GI50 (T47D),GI50 (BT-549),GI50 (OVCAR-5),GI50 (IGROV-1),GI50 (RXF 393),GI50 (TK-10),GI50 (PC-3),GI50 (NCI-H522),GI50 (LOX IMVI),GI50 (HOP-62),GI50 (SK-OV-3),GI50 (UACC-62),GI50 (MCF7),GI50 (A549),GI50 (A498)
O=C1C(/N=N/c2ccc(-c3nc4ccccc4o3)cc2)NC(=S)N1c1ccccc1 (stereo not given),> 100 µM (inactive),> 100 µM (inactive),62.7 µM (inactive),62.4 µM (inactive),37.4 µM (inactive),22.9 µM (inactive),> 100 µM (inactive),> 100 µM (inactive),57.3 µM (inactive),83.8 µM (inactive),70 µM (inactive),> 100 µM (inactive),60.4 µM (inactive),35.5 µM (inactive),> 100 µM (inactive),> 100 µM (inactive),80.2 µM (inactive),33.2 µM (inactive),> 100 µM (inactive),
COc1cc(C2c3cc4c(cc3OC(N3CCOCC3)C2C)OCO4)ccc1O (stereo not given),14.5 µM (inactive),,6.34 µM (inactive),7.64 µM (inactive),28.7 µM (inactive),10.3 µM (inactive),10.3 µM (inactive),> 76.2 µM (inactive),16.4 µM (inactive),11.5 µM (inactive),36.5 µM (inactive),7.28 µM (inactive),8.15 µM (inactive),11.8 µM (inactive),11.7 µM (inactive),,8.05 µM (inactive),5.98 µM (inactive),13.4 µM (inactive),17.6 µM (inactive)
COc1ccc2c(c1)[n+]([O-])c1cc(C#N)ccc1[n+]2[O-],3.72 µM (inactive),12.5 µM (inactive),0.33 µM (active),4.41 µM (inactive),1.1 µM (active),11.7 µM (inactive),10.2 µM (inactive),15.2 µM (inactive),4.88 µM (inactive),47.2 µM (inactive),3.21 µM (inactive),2.43 µM (inactive),5.62 µM (inactive),3.3 µM (inactive),2.11 µM (inactive),18.5 µM (inactive),2.94 µM (inactive),4.84 µM (inactive),0.378 µM (active),
C#CC1(OC(C)=O)CCC2C3CC=C4C=C(OC(C)=O)CCC4(C)C3CCC21C (stereo not given),19.5 µM (inactive),24.2 µM (inactive),26.7 µM (inactive),28.1 µM (inactive),31.1 µM (inactive),61.5 µM (inactive),31.8 µM (inactive),34.7 µM (inactive),19.3 µM (inactive),,24.3 µM (inactive),,17.4 µM (inactive),22.7 µM (inactive),44.9 µM (inactive),36.2 µM (inactive),18.3 µM (inactive),24.5 µM (inactive),31.6 µM (inactive),46.6 µM (inactive)
O=C(OCc1ccccc1)c1nc2ccccc2n1S(=O)(=O)c1ccccc1,> 100 µM (inactive),> 100 µM (inactive),> 100 µM (inactive),> 100 µM (inactive),> 100 µM (inactive),59.2 µM (inactive),> 100 µM (inactive),> 100 µM (inactive),> 100 µM (inactive),> 100 µM (inactive),> 100 µM (inactive),> 100 µM (inactive),,> 100 µM (inactive),> 100 µM (inactive),> 100 µM (inactive),> 100 µM (inactive),,> 100 µM (inactive),> 100 µM (inactive)
COC(=O)/C=C(/OC)[C@H](C)[C@H](/C=C/c1csc(-c2csc(C(C)C)n2)n1)OC,0.149 µM (active),4.69 µM (inactive),1.44 µM (inactive),> 100 µM (inactive),,1.4 µM (inactive),4.8 µM (inactive),> 100 µM (inactive),0.426 µM (active),1.35 µM (inactive),,0.126 µM (active),1.21 µM (inactive),0.0838 µM (active),> 43.3 µM (inactive),> 62.1 µM (inactive),0.33 µM (active),0.178 µM (active),0.136 µM (active),5.97 µM (inactive)
CC1=NNC(=O)C1C1C(=O)NN=C(c2c[nH]c3ccccc23)C1Br (stereo not given),38.3 µM (inactive),> 100 µM (inactive),23.2 µM (inactive),13.1 µM (inactive),> 100 µM (inactive),42.1 µM (inactive),> 100 µM (inactive),> 100 µM (inactive),1.09 µM (active),> 100 µM (inactive),> 100 µM (inactive),25.5 µM (inactive),16.4 µM (inactive),62.1 µM (inactive),40.1 µM (inactive),57.4 µM (inactive),83.4 µM (inactive),,41.8 µM (inactive),> 100 µM (inactive)
COC(=O)/C(=N\N)C(C(=O)C(=O)Nc1cc(Cl)ccc1Cl)c1nc2ccc([N+](=O)[O-])cc2nc1O (stereo not given),> 100 µM (inactive),> 100 µM (inactive),> 100 µM (inactive),> 100 µM (inactive),,> 100 µM (inactive),> 100 µM (inactive),> 100 µM (inactive),50.1 µM (inactive),> 100 µM (inactive),> 100 µM (inactive),> 100 µM (inactive),> 100 µM (inactive),> 100 µM (inactive),> 100 µM (inactive),> 100 µM (inactive),> 100 µM (inactive),> 100 µM (inactive),> 100 µM (inactive),> 100 µM (inactive)
Fc1ccc(-c2sc(-c3cccs3)cc2Cc2cccs2)cc1,> 100 µM (inactive),> 100 µM (inactive),> 100 µM (inactive),> 100 µM (inactive),> 100 µM (inactive),> 100 µM (inactive),> 100 µM (inactive),> 100 µM (inactive),> 100 µM (inactive),50.6 µM (inactive),> 100 µM (inactive),,> 100 µM (inactive),> 100 µM (inactive),,> 100 µM (inactive),> 100 µM (inactive),> 100 µM (inactive),> 100 µM (inactive),> 100 µM (inactive)
C=CCn1c(=O)c2ccccc2[n+]2c(C)c(C(=O)OCC)sc12,90.2 µM (inactive),> 100 µM (inactive),> 100 µM (inactive),,> 100 µM (inactive),> 100 µM (inactive),> 100 µM (inactive),> 100 µM (inactive),> 100 µM (inactive),> 100 µM (inactive),> 100 µM (inactive),> 100 µM (inactive),> 100 µM (inactive),> 100 µM (inactive),42.4 µM (inactive),> 100 µM (inactive),> 100 µM (inactive),> 100 µM (inactive),> 100 µM (inactive),
NCCCCC(NC(=O)C(N)Cc1ccc(O)cc1)C(=O)NC(CCCCN)C(=O)NC(CCCCN)C(=O)ON1C(=O)CCC1=O (stereo not given) (H-YKKK-OSu; configuration not given here),> 100 µM (inactive),> 100 µM (inactive),> 100 µM (inactive),> 100 µM (inactive),,49.5 µM (inactive),> 100 µM (inactive),> 100 µM (inactive),> 100 µM (inactive),> 100 µM (inactive),> 100 µM (inactive),> 100 µM (inactive),,,> 100 µM (inactive),,> 100 µM (inactive),> 100 µM (inactive),> 100 µM (inactive),> 100 µM (inactive)
